Laboratory results from PMC6642016 (Nature chemical biology, 2019).

How the values were obtained:
Format in all cases: biochemical
PtmJ = molecular target: T1, PtmJ (Streptomyces pactum, UniProt A8R0J5); experiment: mass spectrometry of GlcNAc-3ABA-SNAC; details: donor UDP-GlcNAc
T1 sequence (A8R0J5 1-318): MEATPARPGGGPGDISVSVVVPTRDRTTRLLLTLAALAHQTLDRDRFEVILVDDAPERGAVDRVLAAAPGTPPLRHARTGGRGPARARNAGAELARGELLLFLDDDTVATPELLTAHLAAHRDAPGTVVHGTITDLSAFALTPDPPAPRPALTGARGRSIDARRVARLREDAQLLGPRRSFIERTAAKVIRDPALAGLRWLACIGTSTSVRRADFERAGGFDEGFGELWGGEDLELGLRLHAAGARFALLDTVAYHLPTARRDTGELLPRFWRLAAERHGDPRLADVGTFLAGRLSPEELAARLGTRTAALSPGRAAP

PtmS = molecular target: T2, PtmS (Streptomyces pactum, UniProt B7TWM6); experiment: HPLC and LC-MS of 3ABA-AMP; details: MgCl2 5 mM, Tris-HCl pH 8.0, 30 °C
T2 sequence (B7TWM6 1-505): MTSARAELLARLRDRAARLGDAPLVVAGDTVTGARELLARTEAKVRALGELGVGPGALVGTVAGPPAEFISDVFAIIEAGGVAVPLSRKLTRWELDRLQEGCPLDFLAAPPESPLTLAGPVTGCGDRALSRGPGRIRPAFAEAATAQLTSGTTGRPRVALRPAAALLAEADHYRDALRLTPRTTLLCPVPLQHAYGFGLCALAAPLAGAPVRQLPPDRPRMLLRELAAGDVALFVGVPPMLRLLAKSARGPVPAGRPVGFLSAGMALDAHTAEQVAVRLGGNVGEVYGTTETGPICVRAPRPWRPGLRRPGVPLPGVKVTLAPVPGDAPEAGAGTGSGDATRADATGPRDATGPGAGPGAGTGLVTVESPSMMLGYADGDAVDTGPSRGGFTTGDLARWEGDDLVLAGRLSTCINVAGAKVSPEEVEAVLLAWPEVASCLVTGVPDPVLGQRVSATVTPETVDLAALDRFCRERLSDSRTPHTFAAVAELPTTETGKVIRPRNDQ

PtmI = molecular target: T3, PtmI (Streptomyces pactum, UniProt A8R0J4); experiment: LC-MS of intact protein; details: covalent; holo-PtmI 200 μM, malonyl-CoA 8 mM, Tris-HCl pH 8.0, 30 °C
T3 sequence (A8R0J4 1-94): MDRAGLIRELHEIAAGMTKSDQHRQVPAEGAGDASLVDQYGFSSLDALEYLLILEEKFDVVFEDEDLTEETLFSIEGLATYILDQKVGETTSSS

With `CC(=O)NCCSC(=O)c1cccc(N)c1` [3ABA-SNAC] the “mass spectrometry of GlcNAc-3ABA-SNAC” value (PtmJ) was “PtmJ reaction mixture showing that 3ABA-SNAC can be glycosylated to give GlcNAc-3ABA-SNAC”.
For `Nc1ncnc2c1ncn2[C@@H]1O[C@H](COP(=O)(O)OP(=O)(O)OP(=O)(O)O)[C@@H](O)[C@H]1O` [ATP], the “HPLC and LC-MS of 3ABA-AMP; coupled pyrophosphate assay” value (PtmS; 3ABA 2 mM) was “incubated with 3ABA in the presence of ATP and MgCl2 to give 3-aminobenzoyl-AMP (3ABA-AMP)”.
For `Nc1cccc(C(=O)O)c1` [compound 3, 3-aminobenzoic acid], the “HPLC and LC-MS of 3ABA-AMP; coupled pyrophosphate assay” value (PtmS; ATP 5 mM) was “the purified protein was incubated with 3ABA in the presence of ATP and MgCl2”.
In the case of `CC(C)(COP(=O)(O)OP(=O)(O)OC[C@H]1O[C@@H](n2cnc3c(N)ncnc32)[C@H](O)[C@@H]1OP(=O)(O)O)[C@@H](O)C(=O)NCCC(=O)NCCSC(=O)CC(=O)O` [malonyl-CoA], the “LC-MS of intact protein (malonyl-PtmI, self-acylation)” value (PtmI) is reported as “Incubation of the holo-PtmI with malonyl-CoA (Figure 3a) also led to the formation of malonyl-PtmI”.
